Data as given in the supplement of paper PMC4862054.

Legend:
Conditions in all cases: incubation time: 72 h
BT-474 [1] = assay: normalised response (% of control), CellTox Green; higher = less cell death (100 = DMSO, 0 = benzethonium chloride kill control)
Summary of the method: (§1)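 Each value is the plate-normalised signal at one concentration of the series. Breast cancer cell lines (20 µl suspension) were incubated 72 h in 384-well plates with compound at 5 concentrations in 10-fold steps over a compound-specific 10,000-fold range. CellTox Green and then CellTiter-Glo were read, and each plate was scaled to 0.1 % DMSO (100) and a positive kill control (0).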

BT-549 [2] = assay: as above
Summary of the method: as §1

CAL-120 [3] = assay: as above
Summary of the method: as §1

CAL-148 [4] = assay: as above
Summary of the method: as §1

CAL-51 [5] = assay: as above
Summary of the method: as §1

CAL-85-1 [6] = assay: as above
Summary of the method: as §1

DU-4475 [7] = assay: as above
Summary of the method: as §1

HCC1143 [8] = assay: as above
Summary of the method: as §1

HCC1599 [9] = assay: as above
Summary of the method: as §1

HCC1937 [10] = assay: as above
Summary of the method: as §1

HDQ-P1 [11] = assay: as above
Summary of the method: as §1

Hs578T [12] = assay: as above
Summary of the method: as §1

MCF-10A [13] = assay: as above
Summary of the method: as §1

MDA-MB-231 [14] = assay: as above
Summary of the method: as §1

MDA-MB-436 [15] = assay: as above
Summary of the method: as §1

MDA-MB-453 [16] = assay: as above
Summary of the method: as §1

MDA-MB-468 [17] = assay: as above
Summary of the method: as §1

MFM-223 [18] = assay: as above
Summary of the method: as §1

BT-474 [19] = assay: normalised response (% of control), CellTiter-Glo; higher = more viable cells (100 = DMSO, 0 = benzethonium chloride kill control)
Summary of the method: as §1

BT-549 [20] = assay: as above
Summary of the method: as §1

CAL-120 [21] = assay: as above
Summary of the method: as §1

CAL-148 [22] = assay: as above
Summary of the method: as §1

CAL-51 [23] = assay: as above
Summary of the method: as §1

CAL-85-1 [24] = assay: as above
Summary of the method: as §1

DU-4475 [25] = assay: as above
Summary of the method: as §1

HCC1143 [26] = assay: as above
Summary of the method: as §1

HCC1599 [27] = assay: as above
Summary of the method: as §1

HCC1937 [28] = assay: as above
Summary of the method: as §1

HDQ-P1 [29] = assay: as above
Summary of the method: as §1

Hs578T [30] = assay: as above
Summary of the method: as §1

MCF-10A [31] = assay: as above
Summary of the method: as §1

MDA-MB-231 [32] = assay: as above
Summary of the method: as §1

MDA-MB-436 [33] = assay: as above
Summary of the method: as §1

MDA-MB-453 [34] = assay: as above
Summary of the method: as §1

MDA-MB-468 [35] = assay: as above
Summary of the method: as §1

MFM-223 [36] = assay: as above
Summary of the method: as §1

SK-BR-3 = assay: as above
Summary of the method: as §1

| SMILES | normalised response (BT-474 [1]) | normalised response (BT-549 [2]) | normalised response (CAL-120 [3]) | normalised response (CAL-148 [4]) | normalised response (CAL-51 [5]) | normalised response (CAL-85-1 [6]) | normalised response (DU-4475 [7]) | normalised response (HCC1143 [8]) | normalised response (HCC1599 [9]) | normalised response (HCC1937 [10]) | normalised response (HDQ-P1 [11]) | normalised response (Hs578T [12]) | normalised response (MCF-10A [13]) | normalised response (MDA-MB-231 [14]) | normalised response (MDA-MB-436 [15]) | normalised response (MDA-MB-453 [16]) | normalised response (MDA-MB-468 [17]) | normalised response (MFM-223 [18]) | normalised response (BT-474 [19]) | normalised response (BT-549 [20]) | normalised response (CAL-120 [21]) | normalised response (CAL-148 [22]) | normalised response (CAL-51 [23]) | normalised response (CAL-85-1 [24]) | normalised response (DU-4475 [25]) | normalised response (HCC1143 [26]) | normalised response (HCC1599 [27]) | normalised response (HCC1937 [28]) | normalised response (HDQ-P1 [29]) | normalised response (Hs578T [30]) | normalised response (MCF-10A [31]) | normalised response (MDA-MB-231 [32]) | normalised response (MDA-MB-436 [33]) | normalised response (MDA-MB-453 [34]) | normalised response (MDA-MB-468 [35]) | normalised response (MFM-223 [36]) | normalised response (SK-BR-3) |
| --- | --- | --- | --- | --- | --- | --- | --- | --- | --- | --- | --- | --- | --- | --- | --- | --- | --- | --- | --- | --- | --- | --- | --- | --- | --- | --- | --- | --- | --- | --- | --- | --- | --- | --- | --- | --- | --- |
| C[C@@H]1CCN(C(=O)CC#N)C[C@@H]1N(C)c1ncnc2[nH]ccc12 [Tofacitinib] (500 nM) | 104% | 129% | 102% | 108% | 103% | 102% | 101% | 98% | 112% | 132% | 102% | 115% | 64.1% | 116% | 82.4% | 101% | 137% | 103% | 107% | 98.4% | 98.6% | 109% | 75.8% | 106% | 103% | 99.6% | 138% | 100% | 104% | 99.8% | 97.5% | 107% | 104% | 94.5% | 104% | 108% | 107% |
| FC(F)c1nc2ccccc2n1-c1nc(N2CCOCC2)nc(N2CCOCC2)n1 [ZSTK474] (1000 nM) | 90.7% | 95.5% | 107% | 89.5% | 92.8% | 101% | 102% | 77.2% | 96.3% | 101% | 49.5% | 104% | 57.7% | 90.3% | 85.9% | 103% | 79.9% | 71% | 70.3% | 42.4% | 65.4% | 69.2% | 49.7% | 49.8% | 87.9% | 73.5% | 79.1% | 69.7% | 51.9% | 45.4% | 47.5% | 61.6% | 56.8% | 40.4% | 58.3% | 55.8% | 35.2% |
| COC(=O)C[C@](O)(CCCC(C)(C)O)C(=O)O[C@@H]1C(OC)=C[C@]23CCCN2CCc2cc4c(cc2[C@H]13)OCO4 [Omacetaxine] (1000 nM) | 93.7% | 52.6% | 91.4% | 93.1% | 111% | 4.24% | 97.7% | 108% | 85.7% | 24.1% | 74.8% | 60.2% | 33.5% | 66.4% | 104% | 115% | 67.1% | 36% | 26.4% | 7.92% | 26.9% | 32% | 10.1% | 0.88% | 25% | 14.5% | 8.63% | 25.8% | 23.1% | 2% | 11.3% | 9.47% | 17.2% | 48.8% | 4.18% | 14.4% | 12.6% |
| Cc1cc(C(C)Nc2ccccc2)c2nc(N3CCOCC3)cc(=O)n2c1 (stereo not given) [TGX-221] (1000 nM) | 95.7% | 92.6% | 99.8% | 90.8% | 105% | 106% | 96.2% | 90.6% | 101% | 102% | 103% | 97.5% | 105% | 110% | 90.5% | 105% | 113% | 80.3% | 83.3% | 88.8% | 94.8% | 98.1% | 102% | 91.7% | 95.7% | 89.4% | 106% | 86.9% | 88% | 93.7% | 93.8% | 89.7% | 89.4% | 97.2% | 77.8% | 95% | 91.7% |
| CCCC(CCC)C(=O)O [Valproic acid] (100000 nM) | 98.1% | 95.3% | 107% | 85.4% | 53.4% | 107% | 105% | 110% | 101% | 86.4% | 75.3% | 63.5% | 53% | 102% | 109% | 111% | 123% | 99.4% | 98.6% | 103% | 96.1% | 91.4% | 83.5% | 101% | 94% | 101% | 94.1% | 103% | 101% | 104% | 101% | 98.7% | 101% | 91.1% | 97.8% | 99.2% | 101% |
| CS(=O)(=O)CCNCc1ccc(-c2ccc3ncnc(Nc4ccc(OCc5cccc(F)c5)c(Cl)c4)c3c2)o1 [Lapatinib] (100 nM) | 96% | 126% | 96.9% | 77.7% | 101% | 96.8% | 98.3% | – | 105% | 118% | 92.8% | – | 109% | 115% | 91.4% | 92.5% | 116% | 101% | 99.9% | 104% | 102% | 98.3% | 90.5% | 96.1% | 99.1% | 103% | 97.2% | 94.6% | 83.9% | 115% | 79.1% | 108% | 103% | 92.2% | 102% | 104% | 50.2% |
| CN(c1ccccc1CNc1nc(Nc2ccc3c(c2)CC(=O)N3)ncc1C(F)(F)F)S(C)(=O)=O (1000 nM) | 101% | 116% | 99.7% | 96.8% | 15.1% | 99.4% | 97.4% | 71.2% | 97.1% | 111% | – | 65.3% | 101% | 83.4% | 104% | 106% | 150% | – | 73.2% | 93.5% | 81% | 91.1% | 53.6% | 87.2% | 84.8% | 87.8% | 107% | 94.5% | 84.5% | 89.1% | 63.5% | 76.4% | 101% | 128% | 69% | 92.3% | 79.7% |
| COc1cc(Nc2ncc(F)c(Nc3ccc4c(n3)NC(=O)C(C)(C)O4)n2)cc(OC)c1OC [Tamatinib] (1000 nM) | 99.7% | 90.7% | 105% | 102% | 89.9% | 103% | 100% | 119% | 103% | – | 105% | 108% | 105% | 107% | 94.2% | 103% | – | 103% | 96.6% | 77.5% | 97.2% | 95.6% | 92.1% | 95.1% | 103% | 104% | 106% | 102% | 98.4% | 101% | 104% | 101% | 104% | 105% | 88.7% | 104% | 104% |
| Nc1nccc(-c2c(-c3ccc(F)cc3)ncn2C2CCCCC2)n1 (1000 nM) | 102% | 109% | 107% | 98.4% | 86.2% | 104% | 107% | 120% | 100% | 91.5% | 103% | – | 109% | 84% | 81.5% | 107% | 67.2% | – | 98.9% | 101% | 108% | 97.5% | 97% | 96.7% | 103% | 101% | 104% | 97.3% | 106% | 104% | 103% | 98.7% | 103% | 96.6% | 68.9% | 105% | 95.4% |
